Data: US10913742B2, “Oxadiazolones as transient receptor potential channel inhibitors” (Genentech, Inc., priority 2017, dated 2021)

target: human TRPA1 (Homo sapiens (Human), UniProt O75762); test: hTRPA1 CHO Ca2+ FLIPR assay (block of cinnamaldehyde induced calcium influx); assay type: cell-based; conditions: CHO cells expressing TRPA1; 75 uM cinnamaldehyde; Hill coefficient fixed to 1.5; read-out: hTRPA1 (hTRPA1 CHO Ca2+ MAX EVO (IC50))
Description: CHO cells expressing TRPA1 were plated into 384-well plates, incubated overnight at 37° C., and loaded with BD calcium indicator dye for 1 hr at 37° C. followed by 15 minutes at room temperature. The assay buffer was Hank's Balanced Salt Solution (HBSS) containing 20 mM HEPES (pH readjusted to 7.4) along with 0.02% BSA.
Following dye load and plate cool down, compounds were added to the cells using FLIPR Tetra. Plates were then incubated with compounds for 20 minutes at room temperature prior to adding agonist.
The IC50 results were fit with a standard Hill function, keeping the Hill coefficient (n) fixed to 1.5. Fixing the Hill coefficient will generally reduce variability of the IC50 determination. The IC50 results were individually examined to make sure the MIN and MAX points were set correctly prior to validation of the results.

Sequence of human TRPA1 (O75762 whole entry): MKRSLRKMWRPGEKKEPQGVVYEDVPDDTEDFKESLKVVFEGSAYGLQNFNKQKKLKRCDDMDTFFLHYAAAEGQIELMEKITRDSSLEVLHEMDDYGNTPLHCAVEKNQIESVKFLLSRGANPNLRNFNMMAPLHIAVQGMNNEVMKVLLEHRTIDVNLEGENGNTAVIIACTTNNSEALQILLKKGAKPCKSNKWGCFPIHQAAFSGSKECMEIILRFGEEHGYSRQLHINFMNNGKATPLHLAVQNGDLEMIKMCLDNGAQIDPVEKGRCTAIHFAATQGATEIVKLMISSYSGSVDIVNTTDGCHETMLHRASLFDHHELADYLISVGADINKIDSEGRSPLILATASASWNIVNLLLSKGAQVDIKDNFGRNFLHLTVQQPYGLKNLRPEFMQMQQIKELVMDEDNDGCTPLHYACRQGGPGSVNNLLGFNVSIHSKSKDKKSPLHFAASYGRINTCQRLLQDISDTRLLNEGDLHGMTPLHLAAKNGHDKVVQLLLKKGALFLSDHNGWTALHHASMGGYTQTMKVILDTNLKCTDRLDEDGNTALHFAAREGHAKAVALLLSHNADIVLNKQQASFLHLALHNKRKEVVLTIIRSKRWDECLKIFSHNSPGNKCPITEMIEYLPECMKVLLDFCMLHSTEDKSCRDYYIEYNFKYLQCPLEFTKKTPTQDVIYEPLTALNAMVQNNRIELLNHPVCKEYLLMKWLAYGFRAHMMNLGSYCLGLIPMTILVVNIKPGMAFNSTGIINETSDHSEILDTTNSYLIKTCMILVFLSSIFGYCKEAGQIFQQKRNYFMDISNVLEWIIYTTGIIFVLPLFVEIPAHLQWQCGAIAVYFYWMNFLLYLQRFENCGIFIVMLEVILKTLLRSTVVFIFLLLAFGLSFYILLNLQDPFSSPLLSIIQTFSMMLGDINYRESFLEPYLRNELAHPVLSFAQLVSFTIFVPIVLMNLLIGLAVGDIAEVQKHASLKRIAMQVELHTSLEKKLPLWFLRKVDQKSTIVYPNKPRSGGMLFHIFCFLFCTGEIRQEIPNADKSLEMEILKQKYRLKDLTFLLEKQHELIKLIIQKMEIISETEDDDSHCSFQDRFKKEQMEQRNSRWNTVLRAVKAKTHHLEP

Compound | IC50 [nM]
Cc1ccnc2ncn(Cc3nn([C@@H]4CC[C@@H](c5ccc(F)cc5)C4)c(=O)o3)c(=O)c12 (racemic) [compound 67, 5-[(5-methyl-4-oxo-pyrido[2,3-d]pyrimidin-3-yl)methyl]-3-[rac-(1R,3R)-3-(4-fluorophenyl)cyclopentyl]-1,3,4-oxadiazol-2-one] | 4.76
Cn1cnc2ncn(Cc3nn([C@@H]4CC[C@@H](c5cccc(F)c5)C4)c(=O)o3)c(=O)c21 (racemic) [compound 76, 5-[(7-methyl-6-oxo-purin-1-yl)methyl]-3-[rac-(1R,3R)-3-(3-fluorophenyl)cyclopentyl]-1,3,4-oxadiazol-2-one] | 75.8
O=c1c2cccnc2ncn1Cc1nn([C@@H]2CC[C@@H](c3ccc(F)cc3)C2)c(=O)o1 (racemic) [compound 78, 5-[(4-oxopyrido[2,3-d]pyrimidin-3-yl)methyl]-3-[rac-(1R,3R)-3-(4-fluorophenyl)cyclopentyl]-1,3,4-oxadiazol-2-one] | 40.6
Cn1cnc2ncn(Cc3nn([C@@H]4C[C@@H](F)[C@@H](c5ccc(Cl)cc5)C4)c(=O)o3)c(=O)c21 (racemic) [compound 82, 5-[(7-methyl-6-oxo-purin-1-yl)methyl]-3-[rac-(1S,3R,4R)-3-(4-chlorophenyl)-4-fluoro-cyclopentyl]-1,3,4-oxadiazol-2-one] | 43.9
Cn1cnc2ncn(Cc3nn([C@@H]4CC[C@@H](c5cccc(Cl)c5)C4)c(=O)o3)c(=O)c21 (racemic) [compound 101, 5-[(7-methyl-6-oxo-purin-1-yl)methyl]-3-[rac-(1R,3R)-3-(3-chlorophenyl)cyclopentyl]-1,3,4-oxadiazol-2-one] | 36.1
Cn1cnc2ncn(Cc3nn([C@H]4CC[C@H](c5ccccc5)C4)c(=O)o3)c(=O)c21 (racemic) [compound 108, 5-[(7-methyl-6-oxo-purin-1-yl)methyl]-3-[rac-(1S,3S)-3-phenylcyclopentyl]-1,3,4-oxadiazol-2-one] | 156
Cn1cnc2ncn(Cc3nn(CCc4ccc(OC(F)F)cc4)c(=O)o3)c(=O)c21 [compound 2, 3-(4-(difluoromethoxy)phenethyl)-5-((7-methyl-6-oxo-6H-purin-1(7H)-yl)methyl)-1,3,4-oxadiazol-2(3H)-one] | 211
Cn1cnc2ncn(Cc3nn(CCc4ccc(Br)cc4)c(=O)o3)c(=O)c21 [compound 3, 3-(4-bromophenethyl)-5-((7-methyl-6-oxo-6H-purin-1(7H)-yl)methyl)-1,3,4-oxadiazol-2(3H)-one] | 44
Cn1cnc2ncn(Cc3nn(CCc4ccccc4)c(=O)o3)c(=O)c21 [compound 4, 5-((7-methyl-6-oxo-6H-purin-1(7H)-yl)methyl)-3-phenethyl-1,3,4-oxadiazol-2(3H)-one] | 1060
Cn1cnc2ncn(Cc3nn(CCc4ccc(C#N)cc4)c(=O)o3)c(=O)c21 [compound 5, 4-(2-(5-((7-methyl-6-oxo-6H-purin-1(7H)-yl)methyl)-2-oxo-1,3,4-oxadiazol-3(2H)-yl)ethyl)benzonitrile] | 1170
Cc1ccnc2ncn(Cc3nn(CCc4ccc(Cl)cc4)c(=O)o3)c(=O)c12 [compound 7, 3-[2-(4-chlorophenyl)ethyl]-5-[(5-methyl-4-oxo-pyrido[2,3-d]pyrimidin-3-yl)methyl]-1,3,4-oxadiazol-2-one] | 12
Cc1ccnc2ncn(Cc3nn(CCc4ccc(C#N)cc4)c(=O)o3)c(=O)c12 [compound 8, 4-[2-[5-[(5-methyl-4-oxo-pyrido[2,3-d]pyrimidin-3-yl)methyl]-2-oxo-1,3,4-oxadiazol-3-yl]ethyl]benzonitrile] | 166

More lines, now with the values ahead:

IC50 [nM] | Compound
11.9 | Cc1ccnc2ncn(Cc3nn(C[C@H](F)c4ccc(OC(F)F)cc4)c(=O)o3)c(=O)c12 (racemic) [compound 80, 5-[(5-methyl-4-oxo-pyrido[2,3-d]pyrimidin-3-yl)methyl]-3-[rac-(2R)-2-[4-(difluoromethoxy)phenyl]-2-fluoro-ethyl]-1,3,4-oxadiazol-2-one]
50 | O=c1c2cccnc2ncn1Cc1nn(C[C@H](F)c2ccc(OC(F)F)cc2)c(=O)o1 (racemic) [compound 81, 5-[(4-oxopyrido[2,3-d]pyrimidin-3-yl)methyl]-3-[rac-(2R)-2-[4-(difluoromethoxy)phenyl]-2-fluoro-ethyl]-1,3,4-oxadiazol-2-one]
166 | Cn1cnc2ncn(Cc3nn(C[C@H](F)c4cccc(Cl)c4)c(=O)o3)c(=O)c21 (racemic) [compound 84, 5-[(7-methyl-6-oxo-purin-1-yl)methyl]-3-[rac-(2R)-2-(3-chlorophenyl)-2-fluoro-ethyl]-1,3,4-oxadiazol-2-one]
43.8 | Cn1c(=O)ccc2ncn(Cc3nn(C[C@H](F)c4ccc(Cl)cc4)c(=O)o3)c(=O)c21 (racemic) [compound 87, 5-methyl-3-[[5-oxo-4-[rac-(2R)-2-(4-chlorophenyl)-2-fluoro-ethyl]-1,3,4-oxadiazol-2-yl]methyl]pyrido[3,2-d]pyrimidine-4,6-dione]
48.5 | O=c1c2cccnc2ncn1Cc1nn(C[C@H](F)c2ccc(Cl)cc2)c(=O)o1 (racemic) [compound 95, 5-[(4-oxopyrido[2,3-d]pyrimidin-3-yl)methyl]-3-[rac-(2R)-2-(4-chlorophenyl)-2-fluoro-ethyl]-1,3,4-oxadiazol-2-one]
19.1 | Cn1cnc2ncn(Cc3nn(C[C@H](F)c4ccc(OC(F)(F)F)cc4)c(=O)o3)c(=O)c21 (racemic) [compound 109, 5-[(7-methyl-6-oxo-purin-1-yl)methyl]-3-[rac-(2R)-2-fluoro-2-[4-(trifluoromethoxy)phenyl]ethyl]-1,3,4-oxadiazol-2-one]
81.3 | Cn1cnc2ncn(Cc3nn(C[C@H](F)c4ccc(OC(F)F)cc4)c(=O)o3)c(=O)c21 (racemic) [compound 110, 5-[(7-methyl-6-oxo-purin-1-yl)methyl]-3-[rac-(2R)-2-[4-(difluoromethoxy)phenyl]-2-fluoro-ethyl]-1,3,4-oxadiazol-2-one]
180 | Cc1ccnc2ncn(Cc3nn(CC(F)c4ccc(Cl)cc4)c(=O)o3)c(=O)c12 (stereo in doubt) [compound 33, 5-[(5-methyl-4-oxo-pyrido[2,3-d]pyrimidin-3-yl)methyl]-3-[(2R)-2-(4-chlorophenyl)-2-fluoro-ethyl]-1,3,4-oxadiazol-2-one]
5 | Cc1ccnc2ncn(Cc3nn(CC(F)c4ccc(Cl)cc4)c(=O)o3)c(=O)c12 (stereo in doubt) [compound 34, 5-[(5-methyl-4-oxo-pyrido[2,3-d]pyrimidin-3-yl)methyl]-3-[(2S)-2-(4-chlorophenyl)-2-fluoro-ethyl]-1,3,4-oxadiazol-2-one]
7 | Cn1cnc2ncn(Cc3nn(CC(F)c4ccc5ccccc5c4)c(=O)o3)c(=O)c21 (stereo in doubt) [compound 38, 5-[(7-methyl-6-oxo-purin-1-yl)methyl]-3-[(2S)-2-fluoro-2-(2-naphthyl)ethyl]-1,3,4-oxadiazol-2-one]
95 | Cn1cnc2ncn(Cc3nn(CCc4ccc(Cl)cc4)c(=O)o3)c(=O)c21 [compound 1, 3-[2-(4-chlorophenyl)ethyl]-5-[(7-methyl-6-oxo-purin-1-yl)methyl]-1,3,4-oxadiazol-2-one]
13 | Cc1cncc2ncn(Cc3nn(CCc4ccc(Cl)cc4)c(=O)o3)c(=O)c12 [compound 6, 3-(4-chlorophenethyl)-5-((5-methyl-4-oxopyrido[3,4-d]pyrimidin-3(4H)-yl)methyl)-1,3,4-oxadiazol-2(3H)-one]
